Test results from patent publication US7332476B2, “Pyridyl substituted ketolide antibiotics” (Novartis AG, priority 2003, dated 2008).
≈ marks a conversion by molar mass, not a printed value.

Columns and labels:
[1] = In vivo pharmacokinetic study in rats, whole lung (IV and PO); conditions: male, Sprague-Dawley, 5 mg/kg, rat
Experimental: (§1) Animal Models. A total of 54 male Sprague-Dawley rats, weighing 200 grams in average, were evaluated for pharmacokinetic studies of representative pyridyl substituted ketolides. Rats were under overnight food restriction and received water ad libitum. Rats were acclimated for approximately 5 days before antibiotic administration.
(§2) Antibiotic Administration. Rats were given bolus administration through (IV) and oral (PO) routes. Representative pyridyl substituted ketolides and telithromycin, for comparison, were diluted in 0.85% saline to a concentration of 15.0 mg/ml, and the resulting pH was adjusted using 1N acetic acid until the compound was in solution. Approximately 200 microliters of the compound solution was administered to the rats. The target dose for IV and PO administration was 5 mg/kg and 15 mg/kg, respectively.
(§3) Sample Collection. Plasma and whole lung samples were collected from the rats. Plasma samples were obtained from blood samples by centrifugation at 3000 RPM for 10 min. Heparin was added in the plasma as an anticoagulant. Whole lung samples were homogenized in deionized water. Samples were stored at −80° C. A total of 9 time points were collected in triplicate at 0.083, 0.25, 0.5, 1, 2, 4, 6, 8, and 24 hrs. Ketolide concentrations in plasma and lung were determined by well-established non-GLP LC-MS-MS methods. PK parameters were estimated from the raw bioanalytical data using WinNolin software (Version 4.0, Pharsight Corporation, CA). […] All representative compounds were compared to telithromycin.

[2] = tested on: Streptococcus pneumoniae Stpn_Mef 5654; test: MIC, broth microdilution (NCCLS); assay type: cell-based; conditions: in µg/mL (unit assumed)
Procedure, shortened: (§4)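 Broth microdilution per NCCLS in cation-adjusted Mueller-Hinton broth, with 2-5% lysed horse blood added for S. pneumoniae. Inoculum 3×10^5–7×10^5 CFU/ml, 2-fold drug dilutions, 18-24 h at 35° C; S. pneumoniae under 5-10% CO2, others ambient air. MIC = lowest concentration preventing visible growth.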

[3] = tested on: Streptococcus pneumoniae Stpn_280-962; test: MIC, broth microdilution (NCCLS); assay type: cell-based
Procedure, shortened: as §4

[4] = tested on: Streptococcus pneumoniae Stpn_49619; test: MIC, broth microdilution (NCCLS); assay type: cell-based
Procedure, shortened: as §4

[5] = tested on: Streptococcus pneumoniae Stpn_297-749; test: MIC, broth microdilution (NCCLS); assay type: cell-based
Procedure, shortened: as §4

[6] = In vivo pharmacokinetic study in rats, plasma (IV and PO); design: species or system Sprague-Dawley rats; conditions: rat
Experimental: as §1, §2, §3

[7] = tested on: Haemophilus influenzae Hain_960820544-3; test: MIC, broth microdilution (NCCLS); assay type: cell-based; conditions: Table 10, Strain ID J (Table 8): Haemophilus influenzae Hain_960820544-3; in µg/mL (unit assumed)
Procedure, shortened: (§5)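 Following NCCLS guidance, each isolate at 3×10^5–7×10^5 CFU/ml met serially halved compound concentrations in cation-adjusted Mueller-Hinton broth or Haemophilus Test Medium. The endpoint was the lowest concentration giving no visible growth after 18-24 hours at 35° C.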

[8] = tested on: Haemophilus influenzae Hain_953460299-3; test: MIC, broth microdilution (NCCLS); assay type: cell-based; conditions: Table 10, Strain ID K (Table 8): Haemophilus influenzae Hain_953460299-3; in µg/mL (unit assumed)
Procedure, shortened: as §5

[9] = tested on: Haemophilus influenzae Hain_2762; test: MIC, broth microdilution (NCCLS); assay type: cell-based; conditions: Table 10, Strain ID L (Table 8): Haemophilus influenzae Hain_2762; in µg/mL (unit assumed)
Procedure, shortened: as §5

[10] = tested on: Haemophilus influenzae Hain_960730503-3; test: MIC, broth microdilution (NCCLS); assay type: cell-based; conditions: Table 10, Strain ID I (Table 8): Haemophilus influenzae Hain_960730503-3; in µg/mL (unit assumed)
Procedure, shortened: as §5

[11] = tested on: Staphylococcus aureus Stau_33591; test: MIC, broth microdilution (NCCLS); assay type: cell-based; conditions: Table 10, Strain ID B (Table 8): Staphylococcus aureus Stau_33591; unit assumed
Procedure, shortened: as §5

[12] = tested on: Enterococcus faecalis Enfa_bc 11148-2; test: MIC, broth microdilution (NCCLS); assay type: cell-based; conditions: Table 10, Strain ID F (Table 8): Enterococcus faecalis Enfa_bc 11148-2; in µg/mL (unit assumed)
Procedure, shortened: as §5

[13] = tested on: Staphylococcus epidermidis Step_14990; test: MIC, broth microdilution (NCCLS); assay type: cell-based
Procedure, shortened: as §4

[14] = tested on: Streptococcus pneumoniae Stpn_Erm S 4297; test: MIC, broth microdilution (NCCLS); assay type: cell-based
Procedure, shortened: as §4

[15] = tested on: Enterococcus faecalis Enfa_29212; test: MIC, broth microdilution (NCCLS); assay type: cell-based
Procedure, shortened: as §4

[16] = tested on: Haemophilus influenzae Hain_49247; test: MIC, broth microdilution (NCCLS); assay type: cell-based; conditions: unit assumed
[17] = tested on: Staphylococcus aureus Stau_29213; test: MIC, broth microdilution (NCCLS); assay type: cell-based; conditions: Table 10, Strain ID A (Table 8): Staphylococcus aureus Stau_29213
Procedure, shortened: as §4

[18] = tested on: Staphylococcus epidermidis Step_f50654; test: MIC, broth microdilution (NCCLS); assay type: cell-based
Procedure, shortened: as §4

[19] = tested on: Streptococcus pneumoniae Stpn_Mef S 3427; test: MIC, broth microdilution (NCCLS); assay type: cell-based
Procedure, shortened: as §4

[20] = tested on: Streptococcus pyogenes Stpy_8668; test: MIC, broth microdilution (NCCLS); assay type: cell-based
Procedure, shortened: as §4

E. coli Esco_25922 = test: MIC, broth microdilution (NCCLS); assay type: cell-based; conditions: Table 5, Strain ID M (Table 4): E. coli Esco_25922; unit assumed
Experimental: Strains. The bacterial isolates listed in Table 4 were cultivated from −70° C. frozen stocks by two consecutive overnight passages (P1, P2) at 35° C. on 5% blood agar (Remel, Lenexa, Kans.). Chocolate agar (Remel) is used for Haemophilus influenzae. H. influenzae and Streptococcus pneumoniae are incubated in 5-10% CO2
Drug Stock Preparation. To determine the amount of solvent to be used to give the desired final concentration, the formula “weight obtained in mg/final concentration in mg/ml” will be used. It will give the amount of solvent in ml needed to be added to give the desired concentration. For example, if 2.5 mg/ml is the desired concentration and the weight of compound is 13.7 mg, then the amount of solvent to be added is […]. Methanol is used as the solvent to dissolve the test compounds. Further dilution of stock is done in sterile, deionized water. Drug stocks are kept frozen at −70° C., protected from light.
Susceptibility Testing. MICs are determined by the broth microdilution method in accordance with the NCCLS guidelines. In brief, organism suspensions are adjusted to a 0.5 McFarland standard to yield a final inoculum between 3×10^5 and 7×10^5 CFU/ml. Drug dilutions and inocula are made in sterile, cation adjusted Mueller-Hinton Broth (CAMHB) (Remel) for all but S. pneumoniae [CAMHB with 2-5% lysed horse blood (Remel)] and H. influenzae [Haemophilus Test Medium (Remel)]. An inoculum volume of 100 μl is added to wells containing 100 μl of broth with 2-fold serial dilutions of drug. All inoculated microdilution trays are incubated in ambient air at 35° C. for 18-24 hours, except for S. pneumoniae, and H. influenzae (both at 5-10% CO2).
Following appropriate incubation, the MIC is determined and the MIC is defined as the lowest concentration of the drug that prevented visible growth.

[21] = tested on: S. pneumoniae Stpn_Erm 6849; test: MIC, broth microdilution (NCCLS); assay type: cell-based, Streptococcus pneumoniae; conditions: Table 5, Strain ID H (Table 4): S. pneumoniae Stpn_Erm 6849; unit assumed
Procedure, shortened: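 Lowest drug concentration giving no visible growth after 18-24 hours at 35° C. under 5-10% CO2 was taken as MIC. Twofold serial dilutions in CAMHB plus 2-5% lysed horse blood, final inoculum 3×10^5–7×10^5 CFU/ml, per NCCLS microdilution.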

C=C[C@]12OC(=O)N(CCCCn3cnc(-c4ccc(Cl)nc4)c3)[C@@H]1[C@@H](C)C(=O)[C@H](C)C[C@](C)(OC)[C@H](OC1O[C@H](C)C[C@H](N(C)C)[C@H]1O)[C@@H](C)C(=O)[C@@H](C)C(=O)O[C@@H]2CC (some centres unmarked) [XX]
half-life ([1]; IV, whole lung, read-out: t1/2, IV Lung (converted)): 1.4 h
Kp ([1]; lung/plasma, iv, read-out: L/P ratio, IV): 94
MIC ([2]; Table 10, Strain ID P (Table 8): Streptococcus pneumoniae Stpn_Mef 5654): 0.2
MIC ([3]; Table 10, Strain ID O (Table 8): Streptococcus pneumoniae Stpn_280-962): =0.05
MIC ([4]; Table 10, Strain ID M (Table 8): Streptococcus pneumoniae Stpn_49619): =0.05
MIC ([5]; Table 10, Strain ID N (Table 8): Streptococcus pneumoniae Stpn_297-749): =0.05
half-life ([6]; male, Sprague-Dawley, 5 mg/kg, IV, plasma, read-out: t1/2, IV Plasma (converted)): 1.3 h
AUC ([6]; male, Sprague-Dawley, plasma, IV, dose IV = 5 mg/kg (Compound XIV: IV = 15)): 2300 ng·h/mL
clearance ([6]; male, Sprague-Dawley, plasma, intravenous): 107 mL/min/kg
Vd ([6]; male, Sprague-Dawley, plasma, intravenous, read-out: Vss): 12 L/kg
F, PO ([6]; PO = 15 mg/kg): 26%
MIC [7]: 3.13
MIC [8]: 6.25
MIC [9]: 0.78
MIC [10]: 3.13
MIC [11]: > 50 µg/mL
MIC [12]: 0.1
MIC ([13]; Table 10, Strain ID C (Table 8): Staphylococcus epidermidis Step_14990): =0.05
MIC ([14]; Table 10, Strain ID R (Table 8): Streptococcus pneumoniae Stpn_Erm S 4297): =0.05
MIC ([15]; Table 10, Strain ID E (Table 8): Enterococcus faecalis Enfa_29212): =0.05
MIC ([16]; Table 10, Strain ID H (Table 8): Haemophilus influenzae Hain_49247): 3.13 µg/mL (≈ 3.65 µM)
MIC [17]: =0.05
MIC ([18]; Table 10, Strain ID D (Table 8): Staphylococcus epidermidis Step_f50654): =0.05
MIC ([19]; Table 10, Strain ID Q (Table 8): Streptococcus pneumoniae Stpn_Mef S 3427): =0.05
MIC ([20]; Table 10, Strain ID G (Table 8): Streptococcus pyogenes Stpy_8668): =0.05

CC[C@H]1OC(=O)[C@H](C)C(=O)[C@H](C)[C@@H](OC2O[C@H](C)C[C@H](N(C)C)[C@H]2O)[C@@](C)(OC)C[C@@H](C)C(=O)[C@H](C)[C@@H]2[C@@H]1OC(=O)N2CCCCn1ccc2ccccc21 (some centres unmarked) [Compound 4717]
MIC ([2]; Table 5, Strain ID J (Table 4): S. pneumoniae Stpn_Mef 5654): 0.2
MIC ([3]; Table 5, Strain ID G (Table 4): S. pneumoniae Stpn_280-962 Pen S): =0.5
MIC (E. coli Esco_25922): > 50 µg/mL
MIC ([4]; Table 5, Strain ID E (Table 4): S. pneumoniae Stpn_49619): =0.5
MIC ([5]; Table 5, Strain ID F (Table 4): S. pneumoniae Stpn_297-749 Pen R): =0.5
MIC [21]: 6.25 µg/mL (≈ 8.12 µM)
MIC ([13]; Table 5, Strain ID A (Table 4): S. epidermidis Step_14990, in µg/mL (unit assumed)): 0.2
MIC ([14]; Table 5, Strain ID I (Table 4): S. pneumoniae Stpn_Erm S 4297, unit assumed): 0.4 µg/mL (≈ 0.519 µM)
MIC ([15]; Table 5, Strain ID C (Table 4): E. faecalis Enfa_29212, in µg/mL (unit assumed)): 0.1
MIC ([16]; Table 5, Strain ID L (Table 4): H. influenzae Hain_49247): 6.25 µg/mL (≈ 8.12 µM)
MIC ([18]; Table 5, Strain ID B (Table 4): S. epidermidis Step_f50654 Pen S, in µg/mL (unit assumed)): 0.4
MIC ([19]; Table 5, Strain ID K (Table 4): S. pneumoniae Stpn_Mef S 3427): =0.05
MIC ([20]; Table 5, Strain ID D (Table 4): S. pyogenes Stpy_8668): =0.5
